Assay results taken from US7314726B2, “Beta secretase exosite binding peptides and methods for identifying beta secretase modulators” (Bristol-Myers Squibb Company, priority 2002, dated 2008).

Target: BACE (Homo sapiens, UniProt P56817)
Assay: Phage ELISA of phage-displayed peptides on immobilised BACE
Assay type: binding
Set-up: The cDNA for the catalytic domain of human BACE (residues 1-460) was PCR-amplified; human IgG1 heavy chain (C, cleaved yes); thrombin cleavage site (C); made in house; host or cells: CHO DG44 cells (stably transfected, secreted)
Settings: clones from solid phase panning at pH 7.0
Description: Two highly selected and homologous 12 mer phage peptides bound BACE specifically and reproducibly in phage-ELISA tests. Bristol-Myers Squibb fUSE5-based C4C, C6C, 5- and 15 mer libraries, and M13-based C7C libraries, and 7- and 12 mer libraries obtained from New England Biolabs, Beverly, Mass. were panned for three cycles against BACE (produced as described herein in Example 3). BACE was immobilized by coating at 0.5 μg/well in 4 wells of Dynex Immulon 4HBX plates overnight at 4° C. in 0.1M NaHCO3 buffer, pH 9.0. Panning was by standard procedures at room temperature that involved blocking wells with 2% BSA in PBS and elution with 0.1M HCL, pH 2.2. The vector NTI alignment tool and visual inspection of sequences were employed to analyze the selected peptides.
After sequencing approximately 20-50 clones from each library after three cycles of selection, we prepared essentially all possible candidate clones (39 clones in total) for phage-ELISA to obtain direct evidence for affinity to BACE. […] We therefore sequenced additional 12 mer clones to try to find additional candidate clones. […] This […] (SEQ ID NO:20) peptide is homologous to […] (SEQ ID NO:19) and consistent with the specific binding of both those peptides to BACE. The […] (SEQ ID NO:20) peptide and […] (SEQ ID NO:19) peptides were the two most efficiently recovered clones with 13 and 9 copies, respectively. […]

Sequence of BACE (P56817 46-460 limits assumed): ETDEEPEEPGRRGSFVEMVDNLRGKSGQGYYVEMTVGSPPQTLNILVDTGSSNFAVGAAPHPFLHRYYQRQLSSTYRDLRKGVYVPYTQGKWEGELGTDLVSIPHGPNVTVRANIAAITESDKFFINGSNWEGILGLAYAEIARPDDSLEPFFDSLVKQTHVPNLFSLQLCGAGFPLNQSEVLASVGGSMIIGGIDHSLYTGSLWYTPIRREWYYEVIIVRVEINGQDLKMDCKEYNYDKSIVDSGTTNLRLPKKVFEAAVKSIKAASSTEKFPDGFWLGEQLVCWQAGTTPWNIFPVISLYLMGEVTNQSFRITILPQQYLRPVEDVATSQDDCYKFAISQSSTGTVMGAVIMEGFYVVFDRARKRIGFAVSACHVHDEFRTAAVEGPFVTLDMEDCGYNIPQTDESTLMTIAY

Substance: Ac-NLTTYPYFIPLP-OH [BMS-561871]
- phage ELISA binding to BACE: specifically bind to BACE
